Consider seven molecules from patent EP2446893A1 (priority 2010, dated 2012).

Read-outs that look alike come from different tables or passages of the source. Starred links: 1 amine or outer side, 2 acyl side, 3 side chain; linkers in the order of their positions; H or OH if unused. Non-standard residues stand in square brackets, D forms with d. Residues, ends and D or L forms follow the SMILES beside them. No end group written: not given here. ξ: configuration not given here. X1 = O=C(C(Cc1ccc(O)cc1)N=CC(Cc1ccc(O)cc1)N[*:1])[*:2]; Pro(4S-Me) = C[C@@H]1CN[C@H](C(=O)O)C1; d(hSer) = N[C@H](CCO)C(=O)O; ξY = NC(Cc1ccc(O)cc1)C(=O)O

In data set [1] the target is T1, OATP1B3 (Homo sapiens, UniProt Q9NPD5).
The target of data set [2] is T2, OATP1B1 (Homo sapiens, UniProt Q9Y6L6). The format is cell-based.
Target sequence in this assay (Q9Y6L6 whole entry, looked up, the tested form may be a part): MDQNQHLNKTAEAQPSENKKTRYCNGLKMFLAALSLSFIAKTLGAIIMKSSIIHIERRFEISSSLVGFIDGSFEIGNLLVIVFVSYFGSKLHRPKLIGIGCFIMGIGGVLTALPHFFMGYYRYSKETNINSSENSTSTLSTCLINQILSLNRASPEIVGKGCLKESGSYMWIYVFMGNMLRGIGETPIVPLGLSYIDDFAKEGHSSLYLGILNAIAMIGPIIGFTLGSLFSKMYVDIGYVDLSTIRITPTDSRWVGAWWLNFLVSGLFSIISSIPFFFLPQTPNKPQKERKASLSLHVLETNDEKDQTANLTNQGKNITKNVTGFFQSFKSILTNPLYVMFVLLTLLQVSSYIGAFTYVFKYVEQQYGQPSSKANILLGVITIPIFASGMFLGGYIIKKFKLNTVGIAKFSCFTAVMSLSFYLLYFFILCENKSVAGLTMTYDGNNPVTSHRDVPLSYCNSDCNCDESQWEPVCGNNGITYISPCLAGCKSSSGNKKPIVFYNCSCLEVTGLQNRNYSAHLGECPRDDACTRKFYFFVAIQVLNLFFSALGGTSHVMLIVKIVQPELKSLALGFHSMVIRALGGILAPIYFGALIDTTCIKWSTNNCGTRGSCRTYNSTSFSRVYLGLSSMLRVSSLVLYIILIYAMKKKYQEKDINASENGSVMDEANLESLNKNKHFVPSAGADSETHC
The subject of data set [3] is primary rat hepatocytes. It counts as cell-based. To be noted: hepatocytes incubated for 96 hours. On the procedure: (§1) Rat hepatocytes were isolated by in vitro collagenase perfusion, Mellgren G, et al., Journal of Cellular Physiology 1995;163:232-240. Experimental conditions were as described in Herfindal L, et al., J Med Chem 2009;52:5758-5762, except for assay of NaN3 and general cytotoxicity, where the hepatocytes were seeded in collage-coated 24-well culture dishes. Microinjection of hepatocytes was as described previously, Fladmark KE, et al., Hepatology 1997;25:847-855. The hepatocyte death (by apoptosis or necrosis) was evaluated by microscopy. Long-term hepatocyte viability was assessed also by the WST-1 colorimetric assay of mitochondrial dehydrogenase activity (Roche Applied Sciences, Mannheim, Germany).

The target in data set [4] is T1, OATP1B3. To be noted: Gui et al. 2010; cited from earlier work.
For data set [5], the system named is primary rat hepatocytes. Nature of the data set: hepatocyte toxicity / long-term viability (microscopy, WST-1). To be noted: for inherent toxicity (morphology, growth, mitochondrial dehydrogenase activity of hepatocytes): hepatocytes incubated for 96 hours; for toxicity for primary rat hepatocytes: not shown. It counts as cell-based. The protocol:
as §1

The nature of data set [6]: solubility in physiological saline. It counts as physicochemical.
Data set [7] can be described thus: stability on storage and in solution. The format is physicochemical.
In a further data set the test system is CaM-KII. The format is biochemical.
Data set [8] concerns the target T2, OATP1B1.
Target sequence in this assay (Q9Y6L6 whole entry, the tested form may be a part): as the sequence (Q9Y6L6 whole entry, looked up, the tested form may be a part) above
For data set [9], the target named is T3, Oatp1b2 (Rattus norvegicus, UniProt Q9QZX8).
T3 sequence (Q9QZX8 1-687): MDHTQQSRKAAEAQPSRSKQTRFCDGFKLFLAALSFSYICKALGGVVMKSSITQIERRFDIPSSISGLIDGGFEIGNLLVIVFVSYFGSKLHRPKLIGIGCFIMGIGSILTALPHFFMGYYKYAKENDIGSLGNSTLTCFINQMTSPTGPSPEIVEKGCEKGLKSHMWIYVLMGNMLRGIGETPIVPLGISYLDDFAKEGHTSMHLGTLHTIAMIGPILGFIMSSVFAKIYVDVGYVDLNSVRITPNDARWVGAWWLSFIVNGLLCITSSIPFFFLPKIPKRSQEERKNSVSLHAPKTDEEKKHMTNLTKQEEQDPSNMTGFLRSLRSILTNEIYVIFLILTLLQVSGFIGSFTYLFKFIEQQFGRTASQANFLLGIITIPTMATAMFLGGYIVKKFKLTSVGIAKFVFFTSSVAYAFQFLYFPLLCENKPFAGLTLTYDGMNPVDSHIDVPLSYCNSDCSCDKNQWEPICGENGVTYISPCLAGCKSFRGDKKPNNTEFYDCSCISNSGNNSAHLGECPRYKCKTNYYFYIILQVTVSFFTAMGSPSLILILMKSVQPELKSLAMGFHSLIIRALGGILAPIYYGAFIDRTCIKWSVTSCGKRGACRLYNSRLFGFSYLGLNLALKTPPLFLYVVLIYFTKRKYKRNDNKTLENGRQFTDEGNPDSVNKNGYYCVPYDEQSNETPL

For data set [10], the system named is primary rat hepatocytes.
For the next data set, the system named is HEK 293 cells. Nature of the data set: toxicity for HEK 293 cells with and without OATP1B1/B3 overexpression. To be noted: not shown.
Data set [11] concerns the target rat hepatocyte channel Oatp1b2 (rat) (UniProt Q9QZX8). Description: cell-based or functional assay.
Data set [12] addresses T2, OATP1B1. The source holds these as a separate data set.
Target sequence in this assay (Q9Y6L6 whole entry, the tested form may be a part): as the sequence (Q9Y6L6 whole entry, looked up, the tested form may be a part) above
Data set [13] addresses T3, Oatp1b2. The source holds these as a separate data set.

T1 sequence (Q9NPD5 whole entry): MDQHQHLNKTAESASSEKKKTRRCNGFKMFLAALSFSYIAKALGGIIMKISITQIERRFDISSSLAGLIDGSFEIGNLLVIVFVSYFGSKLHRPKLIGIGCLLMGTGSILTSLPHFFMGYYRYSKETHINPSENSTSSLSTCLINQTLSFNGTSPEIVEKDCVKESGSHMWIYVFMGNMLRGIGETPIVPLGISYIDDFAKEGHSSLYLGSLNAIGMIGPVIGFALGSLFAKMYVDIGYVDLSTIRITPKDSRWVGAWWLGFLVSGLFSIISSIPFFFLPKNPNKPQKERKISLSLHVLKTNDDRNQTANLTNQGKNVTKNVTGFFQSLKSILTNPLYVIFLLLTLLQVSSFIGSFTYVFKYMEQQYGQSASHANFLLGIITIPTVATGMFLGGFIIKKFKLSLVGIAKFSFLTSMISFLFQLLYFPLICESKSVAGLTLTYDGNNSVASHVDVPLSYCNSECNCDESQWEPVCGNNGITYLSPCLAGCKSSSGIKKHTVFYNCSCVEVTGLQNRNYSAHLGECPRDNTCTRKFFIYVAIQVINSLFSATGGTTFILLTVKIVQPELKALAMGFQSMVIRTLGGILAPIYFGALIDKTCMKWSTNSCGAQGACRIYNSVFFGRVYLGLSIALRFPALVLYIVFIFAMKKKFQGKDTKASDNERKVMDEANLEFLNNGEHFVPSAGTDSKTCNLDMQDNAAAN

Consider “YYSPVPY [linear version of the same peptide, Tyr-Tyr-Ser-Pro-Val-Pro-Tyr]”, for which the “potency compared with another peptide” value at OATP1B3 [1] is given as “considerably less potent”.

Turning to `C/C=C1/C(=O)N[C@@H](C(=O)O)[C@H](C)C(=O)N[C@@H](CCCNC(=N)N)C(=O)N[C@@H](/C=C/C(C)=C/[C@H](C)[C@H](Cc2ccccc2)OC)[C@H](C)C(=O)N[C@@H](C(=O)O)CCC(=O)N1C` [nodularin], at OATP1B1 [2], the Michaelis-Menten constant (Km) worked out at 32 nM.

For the molecule `O=C1OC(c2ccc(O)c(S(=O)(=O)O)c2)(c2ccc(O)c(S(=O)(=O)O)c2)c2c(Br)c(Br)c(Br)c(Br)c21` [BSP, bromosulfophthalein], in the data set on primary rat hepatocytes [3], the “inherent toxicity (morphology, growth, mitochondrial dehydrogenase activity of hepatocytes)” value is given as “highly toxic”.

In the case of `C[C@H]1[C@H](C)CC[C@]2(C(=O)O)CC[C@]3(C)C(=CC[C@@H]4[C@@]5(C)CC[C@H](O)C(C)(C)[C@@H]5CC[C@]43C)[C@H]12` [ursolic acid], at OATP1B3 [4], the “selectivity for OATP1B3 compared to OATP1B1” value is on record as “ten times”.

As to `CC(C)[C@@H]1NC(=O)[C@@H]2CCCN2C(=O)[C@@H](CCO)NC(=O)C(Cc2ccc(O)cc2)NC(=O)C(Cc2ccc(O)cc2)N=CC(Cc2ccc(O)cc2)NC(=O)[C@@H]2C[C@H](C)CN2C1=O` (stereo partly drawn) [Ncp-M1] (cyclo([X1][ξY][d(hSer)]PV[Pro(4S-Me)])), the “inherent toxicity (morphology, growth, mitochondrial dehydrogenase activity of hepatocytes)” value in the data set with primary rat hepatocytes [5] was “no apparent inherent toxicity”. For the same molecule, the “toxicity for primary rat hepatocytes” value in the data set on primary rat hepatocytes [5] is listed as “non-toxic”. Moreover, the “solubility in physiological saline” value in data set [6] is “high solubility”. Also, the stability in solution result in data set [7] (in solution, in particular acidic solutions) is recorded as “degrade in solution”. The stability on storage entry in [7] (stored at -70°C) is listed as “non-stable”. Moreover, the “interference with intracellular steps of microcystin action (protein phosphatase inhibition, CaM-KII activation, ROS production, actin rearrangement)” value in the data set on CaM-KII is recorded as “did not interfere”. Also, the figures for the Ki at OATP1B1 [8], on Oatp1b2 [9] and on OATP1B3 [1] were 1500 nM, 350 nM and 0.01063 nM, respectively. The “hepatocyte uptake of microcystin and nodularin” value in the data set on primary rat hepatocytes [10] is recorded as “blocks”. Besides, in the data set on HEK 293 cells, the “toxicity for HEK 293 cells” value was “non-toxic”.

Consider microcystin-LR (peptide), for which the apparent KM for uptake, deduced from apoptosis of primary rat hepatocytes in [11] was found to be 0.00027 nM.

As for `CC(C)[C@@H]1NC(=O)[C@@H]2CCCN2C(=O)[C@H](CO)NC(=O)[C@H](Cc2ccc(O)cc2)NC(=O)[C@H](Cc2ccc(O)cc2)NC(=O)[C@H](Cc2ccc(O)cc2)NC(=O)[C@@H]2CCCN2C1=O` [cyclic peptide of Seq. ID. No. 1, Tyr1-Tyr2-Ser-Pro-Val-Pro-Tyr7] (cyclo(PVPYYYS)), in the data set on primary rat hepatocytes [5], the “inherent toxicity (morphology, growth, mitochondrial dehydrogenase activity of hepatocytes)” value was “no apparent inherent toxicity” and the “toxicity for primary rat hepatocytes” value is on record as “non-toxic”. Moreover, in data set [6], the “solubility in physiological saline” value is “high solubility”. Besides, on OATP1B1 [12], the “inhibition of nodularin uptake / nodularin-induced apoptosis” value was “inhibited completely” and the “potency compared with another peptide” value was “lower potency than Ncp-M1”. On OATP1B3 [1], the “inhibition of nodularin uptake / nodularin-induced apoptosis” value is listed as “inhibited completely”, the “potency compared with another peptide” value was “lower potency than Ncp-M1” and the “preference for inhibition of OATP1B3” value was “even higher OATP1 B3 preference”. Further, on Oatp1b2 [13], the “inhibition of nodularin uptake / nodularin-induced apoptosis” value is reported as “inhibited completely” and the “potency compared with another peptide” value is “lower potency than Ncp-M1”. Besides, the “toxicity for HEK 293 cells” value in the data set with HEK 293 cells was “non-toxic”.

As usually defined, the Km is the substrate concentration at which the rate is half of its maximum. A word on the Ki: it is the dissociation constant of the complex between target and ligand, obtained from inhibition or displacement. High values mean weaker binding, low ones tighter binding.
